IC50, AC50 and EC50 data for eleven compounds are collected here from ChEMBL document CHEMBL1201862, “PubChem BioAssay data set” (2004).

What is called AC50 is the concentration giving half of the maximal activity seen.

The source made the active and inactive calls.

One assay addresses Interleukin-8 (Homo sapiens, UniProt P10145). Kind of assay: Dose Response confirmation of uHTS small molecule hits for cystic fibrosis induced NFkb Inhibitors in a PAF-induced IL8 counterscreen. The following applies: read-out: IC50_Mean. The class given is functional. (Counterscreens check selectivity or assay interference.)
For a further assay, the system named is HEK293. Kind of assay: EBV LMP1 TES2 canonical NF-kB signalling blockers – cell-based, HEK293, luciferase, cherry-pick, dose response (AID 588343). The following applies: Homo sapiens. The class given is functional.
Assay [1] has as its target T1, Sentrin-specific protease 8 (Homo sapiens, UniProt Q96LD8).
T1 sequence (Q96LD8 whole entry): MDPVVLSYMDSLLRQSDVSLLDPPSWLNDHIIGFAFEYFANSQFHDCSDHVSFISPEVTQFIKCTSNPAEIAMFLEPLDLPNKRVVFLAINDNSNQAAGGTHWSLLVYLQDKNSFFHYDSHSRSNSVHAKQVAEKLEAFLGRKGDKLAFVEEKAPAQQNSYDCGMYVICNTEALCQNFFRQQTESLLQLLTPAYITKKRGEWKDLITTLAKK
It is filed as functional.

Assay [2] concerns the target T1, Sentrin-specific protease 8. It is filed as functional. This is another data set of the same source.
The nature of assay [3]: Trypanosoma cruzi growth suppression in host cells – NIH3T3 host cells, beta-gal luminescence, confirmation (AID 2044).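 Further: intracellular parasites grown in NIH/3T3 mouse fibroblasts as host cells; luminescent beta-galactosidase reporter signal from transgenic T. cruzi replicating inside host cells; inhibitors lower the luminescence signal.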 It is filed as functional, cell-based.
The nature of assay [4]: HEK-293T cell viability reduction – luminescence, B-cell screen hits, cytotoxicity control for BCR NF-kB inhibitor project, dose response (AID 489021).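 Further: HEK-293T cells carrying an NF-kB luciferase reporter; cells exposed to compound for about 14 hours before viability readout.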 It is filed as functional, cell-based.
The nature of assay [5]: NIH3T3 cell viability loss – ATP luminescence, mouse fibroblasts, counter-screen, dose response (AID 2010).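 Further: cells exposed to compound for about 90 hours before reading.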 It is filed as functional, cell-based.
Assay [6] deals with T2, Apoptotic protease-activating factor 1 (Homo sapiens, UniProt O14727).
T2 sequence (O14727 whole entry): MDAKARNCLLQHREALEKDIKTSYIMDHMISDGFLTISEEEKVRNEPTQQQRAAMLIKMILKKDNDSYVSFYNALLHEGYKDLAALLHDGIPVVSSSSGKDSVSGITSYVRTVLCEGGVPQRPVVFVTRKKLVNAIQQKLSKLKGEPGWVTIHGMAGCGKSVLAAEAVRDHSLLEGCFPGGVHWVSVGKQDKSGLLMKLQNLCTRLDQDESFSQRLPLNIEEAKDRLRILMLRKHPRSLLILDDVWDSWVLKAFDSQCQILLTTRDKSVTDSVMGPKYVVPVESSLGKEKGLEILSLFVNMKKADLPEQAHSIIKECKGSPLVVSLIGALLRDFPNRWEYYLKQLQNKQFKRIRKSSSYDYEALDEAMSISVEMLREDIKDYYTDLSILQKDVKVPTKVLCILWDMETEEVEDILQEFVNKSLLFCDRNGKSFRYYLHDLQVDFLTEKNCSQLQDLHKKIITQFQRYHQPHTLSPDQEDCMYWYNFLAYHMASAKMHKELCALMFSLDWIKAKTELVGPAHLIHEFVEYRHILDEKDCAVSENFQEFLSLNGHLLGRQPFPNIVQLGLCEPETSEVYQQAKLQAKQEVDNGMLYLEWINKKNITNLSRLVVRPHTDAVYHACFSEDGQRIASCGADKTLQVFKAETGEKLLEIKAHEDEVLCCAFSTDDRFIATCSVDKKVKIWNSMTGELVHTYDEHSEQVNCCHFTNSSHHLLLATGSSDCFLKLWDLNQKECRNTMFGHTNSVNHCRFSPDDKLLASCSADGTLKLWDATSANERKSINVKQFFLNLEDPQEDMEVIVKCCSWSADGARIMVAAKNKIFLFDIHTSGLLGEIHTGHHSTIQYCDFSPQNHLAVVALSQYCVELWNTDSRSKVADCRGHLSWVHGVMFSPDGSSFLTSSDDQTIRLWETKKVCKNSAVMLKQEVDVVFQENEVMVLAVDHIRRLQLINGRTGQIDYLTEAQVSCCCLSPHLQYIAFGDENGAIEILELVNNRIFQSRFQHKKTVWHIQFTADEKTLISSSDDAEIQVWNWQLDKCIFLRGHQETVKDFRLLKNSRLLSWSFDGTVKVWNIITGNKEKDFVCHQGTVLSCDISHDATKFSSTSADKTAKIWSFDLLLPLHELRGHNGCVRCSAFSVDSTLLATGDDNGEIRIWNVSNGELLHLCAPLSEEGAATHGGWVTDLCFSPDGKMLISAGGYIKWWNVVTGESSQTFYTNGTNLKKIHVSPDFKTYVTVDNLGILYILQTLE
Kind of assay: SAR analysis of small molecule Activators of Apaf-1 in a Fluorescent assay. The following applies: read-out: EC50_Mean. It is filed as functional.

In assay [7] the target is T3, Orexin/Hypocretin receptor type 1 (Homo sapiens, UniProt O43613).
T3 sequence (O43613 whole entry): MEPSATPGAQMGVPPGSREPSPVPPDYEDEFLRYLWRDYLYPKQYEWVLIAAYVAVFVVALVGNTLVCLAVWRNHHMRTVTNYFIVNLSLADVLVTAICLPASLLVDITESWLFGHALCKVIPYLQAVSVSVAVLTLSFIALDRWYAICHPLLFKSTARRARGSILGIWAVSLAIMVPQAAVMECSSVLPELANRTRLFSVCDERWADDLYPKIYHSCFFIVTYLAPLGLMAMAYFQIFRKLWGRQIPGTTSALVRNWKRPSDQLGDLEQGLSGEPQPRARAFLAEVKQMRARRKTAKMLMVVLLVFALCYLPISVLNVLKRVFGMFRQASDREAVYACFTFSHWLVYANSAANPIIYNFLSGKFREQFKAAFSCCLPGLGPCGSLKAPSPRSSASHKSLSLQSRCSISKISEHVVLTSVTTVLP
Kind of assay: Fluorescence-based cell-based high throughput dose response assay for antagonists of the orexin 1 receptor (OX1R; HCRTR1). [Related pubchem assays (depositor defined):AID434989, AID435008, AID463079, AID485270, AID492963, AID492964, AID492965, AID493232, AID504717, AID504718]. It is filed as functional.

Another assay deals with CHO-K1. Kind of assay: Counterscreen for antagonists of the orexin 1 receptor (OX1R; HCRTR1): Homogeneous time resolved fluorescence (HTRF)-based cell-based dose response assay to identify antagonists of the parental CHO-K1 cell line. [Related pubchem assays (depositor defined):AID434989, AID435008, AID463079, AID485270, AID492963, AID492964, AID492965, AID493232, AID504699, AID504701]. It is filed as functional. The following applies: Cricetulus griseus.

Assay [8] deals with Induced myeloid leukemia cell differentiation protein Mcl-1 (Homo sapiens, UniProt Q07820). It is filed as functional.
For assay [9], the target named is T4, Orexin receptor type 2 (Homo sapiens, UniProt O43614).
T4 sequence (O43614 whole entry): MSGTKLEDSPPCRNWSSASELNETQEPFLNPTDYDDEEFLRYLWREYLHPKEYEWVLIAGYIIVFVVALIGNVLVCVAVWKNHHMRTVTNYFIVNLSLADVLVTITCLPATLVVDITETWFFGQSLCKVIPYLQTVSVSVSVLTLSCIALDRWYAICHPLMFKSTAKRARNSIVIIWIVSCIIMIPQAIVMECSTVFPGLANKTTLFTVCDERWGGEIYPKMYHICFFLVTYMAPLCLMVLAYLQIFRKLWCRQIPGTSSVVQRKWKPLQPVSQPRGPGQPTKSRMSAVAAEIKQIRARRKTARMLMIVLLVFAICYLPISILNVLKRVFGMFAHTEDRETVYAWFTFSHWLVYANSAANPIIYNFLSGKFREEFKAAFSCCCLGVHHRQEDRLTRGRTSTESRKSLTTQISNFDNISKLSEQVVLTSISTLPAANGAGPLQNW
Kind of assay: Counterscreen assay for antagonists of the orexin 1 receptor (OX1R; HCRTR1): Fluorescence-based cell-based dose response assay for antagonists of the orexin 2 receptor (OX2R; HCRTR2), run by assay provider. The class given is functional.

The target of assay [10] is T3, Orexin/Hypocretin receptor type 1. Kind of assay: Homogeneous Time Resolved Fluorescence (HTRF)-based cell-based high throughput dose response assay for antagonists of the orexin 1 receptor (OX1R; HCRTR1). [Related pubchem assays (depositor defined):AID434989, AID435008, AID463079, AID485270, AID492963, AID492964, AID492965, AID493232, AID504717, AID504718]. It is filed as functional. (TR-FRET usually uses a lanthanide donor and a delayed reading to cut background.)

Assay [11] deals with T4, Orexin receptor type 2. Kind of assay: Counterscreen assay for antagonists of the orexin 1 receptor (OX1R; HCRTR1): Homogeneous Time Resolved Fluorescence (HTRF)-based cell-based dose response assay for antagonists of the orexin 2 receptor (OX2R; HCRTR2), run by assay provider. The class given is functional.
A short description of assay [12]: Counterscreen for antagonists of the orexin 1 receptor (OX1R; HCRTR1): Fluorescence-based cell-based high throughput dose response assay to identify antagonists of the parental CHO cell line. [Related pubchem assays (depositor defined):AID434989, AID435008, AID463079, AID485270, AID492963, AID492964, AID492965, AID493232, AID504699, AID504701]. The class given is functional.

In assay [13] the target is Adenosylmethionine-8-amino-7-oxononanoate aminotransferase (Mycobacterium tuberculosis, UniProt P9WQ81). Kind of assay: Mycobacterium tuberculosis BioA enzyme inhibitor Measured in Biochemical System Using Plate Reader - 2163-02_Inhibitor_Dose_CherryPick_Activity. The class given is functional, Mycobacterium tuberculosis UT205.
The nature of assay [14]: viability of PTEN-deleted HCT116 cells – cell-based, HCT116 PTEN knockout, dose response (AID 1047).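 Further: HCT116 colon tumor cells with PTEN knocked out; cells exposed to compound for 60 hours before readout; potency for loss of cell viability measured by luminescence.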 The class given is functional.
Assay [15] in a line: viability of HCT116 lacking mutant beta-catenin – cell-based, human colon tumor, dose response (AID 1045).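 Further: HCT116 colon tumor cells with beta catenin knocked out; cells exposed to compound for 60 hours.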 The class given is functional.
The target of assay [16] is FAD-linked sulfhydryl oxidase ALR (Homo sapiens, UniProt P55789). Kind of assay: ALR-catalysed DTT oxidation blockers – biochemical, H2O2 detection, luminescence, cherry-pick, dose response (AID 493248).
The target of assay [17] is T5, Probable nicotinate-nucleotide adenylyltransferase (Staphylococcus aureus (strain N315), UniProt P65502). The class given is functional, Staphylococcus aureus subsp. aureus N315. The following applies: read-out: IC50_Mean.
Assay [18] addresses T5, Probable nicotinate-nucleotide adenylyltransferase. It is filed as functional, Staphylococcus aureus subsp. aureus N315.
The nature of assay [19]: blockers of HIV-1 envelope-mediated cell-cell fusion – cherry-pick, dose response (AID 652057). The class given is functional, cell-based.
The nature of assay [20]: HIV-1 AD8 envelope cell-cell fusion blockers – cherry-pick, dose response (AID 652062).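 Further: luciferase signal from cell-cell fusion driven by HIV-1 clade B AD8 Env; potency is for inhibitors of fusion seen as a drop in luminescence.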 The class given is functional, cell-based.
Assay [21] can be described thus: off-target signal loss in HeLa-CEM21 co-culture – HeLa F-luc CTL cells, cherry-picked, counter-screen for HIV-1 Env fusion inhibitor project, dose response (AID 652040).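 Further: potency for signal decrease marking cytotoxic or nonspecific inhibition.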 The class given is functional, cell-based.
The nature of assay [22]: blockers of HIV-1 ZM109 envelope-driven cell-cell fusion – HeLa effector, CEM target cells, luciferase, cherry-pick, dose response (AID 652058).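 Further: luciferase signal from HIV-1 Env mediated cell-cell fusion of effector and target cells.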 It is filed as functional, cell-based.
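Wherever EC50 Mean is given: caspase-3 cleavage of fluorogenic Rh110 DEVD substrate downstream of apoptosome activation.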

T5 sequence (P65502 whole entry): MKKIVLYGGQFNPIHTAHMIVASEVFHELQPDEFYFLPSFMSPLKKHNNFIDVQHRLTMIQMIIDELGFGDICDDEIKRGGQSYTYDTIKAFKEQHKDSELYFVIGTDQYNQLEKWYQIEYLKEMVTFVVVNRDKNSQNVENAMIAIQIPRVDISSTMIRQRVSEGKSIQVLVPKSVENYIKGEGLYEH
Chain of Adenosylmethionine-8-amino-7-oxononanoate aminotransferase (P9WQ81 whole entry): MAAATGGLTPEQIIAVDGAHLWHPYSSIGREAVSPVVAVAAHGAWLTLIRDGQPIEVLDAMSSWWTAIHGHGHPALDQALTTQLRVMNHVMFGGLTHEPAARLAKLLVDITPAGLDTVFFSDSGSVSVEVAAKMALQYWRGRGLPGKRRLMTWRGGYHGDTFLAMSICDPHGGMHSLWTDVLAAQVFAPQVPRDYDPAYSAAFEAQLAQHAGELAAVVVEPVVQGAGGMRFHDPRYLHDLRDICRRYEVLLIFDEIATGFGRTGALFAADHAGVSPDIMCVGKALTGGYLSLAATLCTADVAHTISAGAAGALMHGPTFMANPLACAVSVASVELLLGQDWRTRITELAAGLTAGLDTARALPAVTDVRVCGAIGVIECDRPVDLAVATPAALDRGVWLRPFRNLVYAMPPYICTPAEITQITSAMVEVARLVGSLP
Chain of Interleukin-8 (P10145 whole entry): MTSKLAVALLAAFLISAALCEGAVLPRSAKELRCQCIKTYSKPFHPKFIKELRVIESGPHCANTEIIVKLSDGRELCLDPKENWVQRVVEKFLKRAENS
Chain of Induced myeloid leukemia cell differentiation protein Mcl-1 (Q07820 whole entry): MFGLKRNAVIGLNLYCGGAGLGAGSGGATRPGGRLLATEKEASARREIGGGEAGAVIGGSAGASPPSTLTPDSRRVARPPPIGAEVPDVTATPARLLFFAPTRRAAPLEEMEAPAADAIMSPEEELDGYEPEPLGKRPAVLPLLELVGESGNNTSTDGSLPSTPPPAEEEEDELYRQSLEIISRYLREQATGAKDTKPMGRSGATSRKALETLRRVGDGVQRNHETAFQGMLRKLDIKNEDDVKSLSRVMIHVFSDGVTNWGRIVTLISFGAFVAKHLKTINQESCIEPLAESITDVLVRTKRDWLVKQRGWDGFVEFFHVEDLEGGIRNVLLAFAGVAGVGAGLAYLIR
Chain of FAD-linked sulfhydryl oxidase ALR (P55789 whole entry): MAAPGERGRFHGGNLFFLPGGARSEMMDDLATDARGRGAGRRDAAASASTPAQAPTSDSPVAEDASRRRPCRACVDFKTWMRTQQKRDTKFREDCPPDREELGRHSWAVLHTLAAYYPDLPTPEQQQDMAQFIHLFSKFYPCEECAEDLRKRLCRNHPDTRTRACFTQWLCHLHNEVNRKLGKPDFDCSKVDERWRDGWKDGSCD

As to `CC(=O)c1c(C)n(C2CCCCC2)c2ccc(O)cc12`, the IC50 on Interleukin-8 was > 79 µM (inactive). For the same compound, the AC50 with HEK293 is 3.23 µM (active).

In the case of `Cc1[nH]n(-c2ccccc2)c(=O)c1S(=O)(=O)c1ccccc1`, the IC50 in [1] was 4.99 µM (active); in assay [2], 12.8 µM (active).

Regarding `Cc1ccc(Sc2cc(NCCCO)c([N+](=O)[O-])c3nonc23)cc1`, the EC50 in [3] was 2.2 µM (active); in assay [5], > 60 µM (not active). Also, the IC50 is > 80 µM (inactive) in assay [4], 18.1 µM (active) in [1] and 23.3 µM (active) in assay [2].

Regarding `O=C(C1CC(c2ccc(F)cc2)=NO1)N1CCCc2ccccc21` (centres undefined), the EC50 in [6] was > 100 µM (inactive).

Take `COc1ccc(N2C(=O)CC3(CC(c4ccccc4F)=NO3)C2=O)cc1` (centres undefined): the EC50 in assay [6] is > 100 µM (inactive).

`Sc1nnc(-c2cc(-c3ccccc3)[nH]n2)n1/N=C/c1c2ccccc2cc2ccccc12`: the IC50 is 23.7 µM (inactive) in assay [7]; > 66.2 µM (inactive) in the assay with CHO-K1; 6.05 µM (not active) in assay [8]; > 88.8 µM (inactive) at Orexin receptor type 2 [9]; 0.585 µM (active) in [10]; > 50 µM (inactive) at Orexin receptor type 2 [11]. Besides, the IC50 in assay [12] is > 49.8 µM (inactive).

Turning to `Cc1nc(-c2cccnc2)sc1C(=O)Nc1cccc(C(F)(F)F)c1`, in assay [13], the AC50 is 3.76 µM (active). Besides, the EC50 was 15.7 µM (active) in assay [14] and 26.8 µM (active) in assay [15].

With `O=C(Nc1ccc2snnc2c1)N1CCN(c2ccccc2)CC1`, the AC50 in assay [13] is 0.0986 µM (active); in [16], 0.913 µM (active).

With `O=C(NC(=S)Nc1cc(-c2nc3ccccc3[nH]2)ccc1Cl)c1ccc2c(c1)OCO2`, the IC50 is 58.9 µM (active) in [17] and 21.1 µM (active) in assay [18]. The EC50 in assay [14] is 1.53 µM (active); in assay [15], 2.23 µM (active).

As for `COc1ccc(C2=Nn3c(nnc3-c3ccncc3)SC2)cc1`, the AC50 in assay [19] is 2.02 µM (active); in assay [20], 1.03 µM (active); in [21], 2.34 µM (active); in [22] it was 1.13 µM (active). Besides, the IC50 at Interleukin-8 is 40.8 µM (inactive).

As for `CC1(OC(=O)C2CCCC2)C(=O)C=C2C=C(c3ccc(C#N)cc3)OC=C2C1=O` (centres undefined), the IC50 in [17] was 15.7 µM (active); in assay [18], 6.57 µM (active).
